Source: patent publication US8067613B2 (Abbott Laboratories, priority 2007, dated 2011)

What follows are compounds tested against T1, Recombinant Human Poly(ADP-Ribose)Polymerase (PARP), PARP-1 (Homo sapiens, UniProt P09874) (assay: PARP1 assay (SPA/FlashPlate, [3H]-NAD+ incorporation into biotinylated histone H1)). Conditions: 1 nM PARP enzyme, 1.5 μM [3H]-NAD+, 200 nM biotinylated histone H1, 200 nM slDNA; Ki from inhibition curves at various substrate concentrations.
T1 construct: purchased Trevigen (Gaithersburg, Md.); host or cells: E. coli
T1 sequence (P09874 whole entry): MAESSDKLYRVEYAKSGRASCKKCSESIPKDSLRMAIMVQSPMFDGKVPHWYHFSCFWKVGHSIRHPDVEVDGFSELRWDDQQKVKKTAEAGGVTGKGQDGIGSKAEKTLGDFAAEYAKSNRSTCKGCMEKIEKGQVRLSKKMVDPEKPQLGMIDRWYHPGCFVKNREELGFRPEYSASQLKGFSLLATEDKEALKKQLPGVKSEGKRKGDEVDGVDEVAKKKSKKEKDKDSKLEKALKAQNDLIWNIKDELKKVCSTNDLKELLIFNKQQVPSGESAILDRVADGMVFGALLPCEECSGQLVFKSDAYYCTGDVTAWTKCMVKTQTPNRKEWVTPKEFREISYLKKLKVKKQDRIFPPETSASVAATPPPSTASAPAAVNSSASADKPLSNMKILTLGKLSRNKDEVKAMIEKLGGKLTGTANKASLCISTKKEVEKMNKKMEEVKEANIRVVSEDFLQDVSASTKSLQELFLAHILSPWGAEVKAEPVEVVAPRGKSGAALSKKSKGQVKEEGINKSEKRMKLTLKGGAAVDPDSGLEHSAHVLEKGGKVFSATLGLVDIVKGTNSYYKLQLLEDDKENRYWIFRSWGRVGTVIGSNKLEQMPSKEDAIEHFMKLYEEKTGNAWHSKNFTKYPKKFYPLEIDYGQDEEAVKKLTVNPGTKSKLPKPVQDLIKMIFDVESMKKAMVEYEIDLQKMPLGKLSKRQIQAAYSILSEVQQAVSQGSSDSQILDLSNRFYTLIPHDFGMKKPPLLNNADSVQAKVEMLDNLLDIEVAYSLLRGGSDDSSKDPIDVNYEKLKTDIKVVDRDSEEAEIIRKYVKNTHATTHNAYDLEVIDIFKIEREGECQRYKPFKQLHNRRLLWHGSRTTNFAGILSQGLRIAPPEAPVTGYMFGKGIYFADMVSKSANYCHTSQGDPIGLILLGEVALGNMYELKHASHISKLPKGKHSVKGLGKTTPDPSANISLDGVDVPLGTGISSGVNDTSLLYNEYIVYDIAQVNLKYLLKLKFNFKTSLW
Assay type: biochemical
Protocol: Nicotinamide[2,5′,8-3H]adenine dinucleotide and strepavidin SPA beads were obtained from Amersham Biosiences (UK). Recombinant Human Poly(ADP-Ribose)Polymerase (PARP), purified from E. coli and 6-Biotin-17-NAD^+, were obtained from Trevigen (Gaithersburg, Md.). NAD^+, histone, aminobenzamide, 3-aminobenzamide and Calf Thymus DNA (dcDNA) were obtained from Sigma (St. Louis, Mo.). Stem loop oligonucleotide containing MCAT sequence was obtained from Qiagen. The oligos were dissolved to 1 mM in annealing buffer containing 10 mM Tris HCl (pH 7.5), 1 mM EDTA, and 50 mM NaCl, incubated for 5 minutes at 95° C. and annealed at 45° C. for 45 minutes. Histone H1 (95% electrophoretically pure) was obtained from Roche (Indianapolis, Ind. Biotinylated histone H1 was prepared by treating the protein with Sulfo-NHS-LC-Biotin (Pierce Rockford, Ill.). The biotinylation reaction was conducted by slowly and intermittently adding 3 equivalents of 10 mM Sulfo-NHS-LC-Biotin to 100 μM Histone H1 in phosphate-buffered saline, pH 7.5, at 4° C. with gentle vortexing over 1 minute then incubation at 4° C. for 1 hour. Streptavidin coated (FlashPlate Plus) microplates were obtained from Perkin Elmer (Boston, Mass.).
PARP1 assay was conducted in PARP assay buffer containing 50 mM tris (pH 8.0), 1 mM DTT and 4 mM MgCl2. PARP reactions contained 1.5 μM [^3H]-NAD^+ (1.6 μCi/mmol), 200 nM biotinylated histone H1, 200 nM slDNA, and 1 nM PARP enzyme. Auto reactions utilizing SPA bead-based detection were carried out in 100 μL volumes in white 96 well plates.
Reactions were initiated by adding 50 μL of 2×NAD^+ substrate mixture to 50 μL of 2× enzyme mixture containing PARP and DNA. These reactions were terminated by the addition of 150 μL of 1.5 mM benzamide (1000-fold over its IC50). 170 μL of the stopped reaction mixtures were transferred to streptavidin Flash Plates, incubated for 1 hour and counted using a TopCount microplate scintillation counter. The Ki data (in nM) for representative compounds of this invention were determined from inhibition curves at various substrate concentrations and are shown in TABLE 1.

Compared with `NC(=O)c1cccc2[nH]c(-c3ccc(-c4ccncc4)s3)nc12` [Example 14, 2-(5-pyridin-4-ylthien-2-yl)-1H-benzimidazole-4-carboxamide], `NC(=O)c1cccc2[nH]c(-c3ccc([C@H]4CCCN4Cc4ccncc4)s3)nc12` [Example 26, 2-(5-((2R)-1-(pyridin-4-ylmethyl)pyrrolidin-2-yl)thien-2-yl)-1H-benzimidazole-4-carboxamide] is 1.9-fold higher in Ki: 3.2 nM for the first, 6 nM for the second. The first binds more tightly here.

Going from `NC(=O)c1cccc2[nH]c(-c3ccc(C4CCCN4C4CCCC4)nc3)nc12` (stereo not drawn) [Example 47, 2-[6-(1-cyclopentylpyrrolidin-2-yl),pyridin-3-yl]-1H-benzimidazole-4-carboxamide] to `NC(=O)c1cccc2[nH]c(-c3ccc(C4CCCN4C4CCCC4)s3)nc12` (stereo not drawn) [Example 41, 2-(5-(1-cyclopentylpyrrolidin-2-yl)thien-2-yl)-1H-benzimidazole-4-carboxamide], the Ki falls from 14 nM to 5 nM (2.8-fold). The second binds more tightly here.

`CC(C)CN1CCCC1c1ccc(-c2nc3c(C(N)=O)cccc3[nH]2)s1` (stereo not drawn) [Example 39, 2-(5-(1-isobutylpyrrolidin-2-yl)thien-2-yl)-1H-benzimidazole-4-carboxamide] and `CC(C)CN1CCC[C@@H]1c1ccc(-c2nc3c(C(N)=O)cccc3[nH]2)s1` [Example 27, 2-(5-((2R)-1-isobutylpyrrolidin-2-yl)thien-2-yl)-1H-benzimidazole-4-carboxamide] are within 1.5-fold of each other in Ki: 11 nM for the first, 8 nM for the second.

Compared with `NC(=O)c1cccc2[nH]c(-c3ccc(-c4nnco4)cn3)nc12` [Example 51, 2-[5-(1,3,4-oxadiazol-2-yl)pyridin-2-yl]-1H-benzimidazole-4-carboxamide], `Cc1nnc(-c2ccc(-c3nc4c(C(N)=O)cccc4[nH]3)nc2)o1` [Example 53, 2-[5-(5-methyl-1,3,4-oxadiazol-2-yl)pyridin-2-yl]-1H-benzimidazole-4-carboxamide] is 180-fold higher in Ki: 1.8 nM for the first, 317 nM for the second.

Compared with `CC(C)N1CCCC1c1ccc(-c2nc3c(C(N)=O)cccc3[nH]2)cn1` (stereo not drawn) [Example 44, 2-[6-(1-isopropylpyrrolidin-2-yl)pyridin-3-yl]-1H-benzimidazole-4-carboxamide], `CC(C)N1CCCC1c1ccc(-c2nc3c(C(N)=O)cccc3[nH]2)s1` (stereo not drawn) [Example 36, 2-(5-(1-isopropylpyrrolidin-2-yl)thien-2-yl)-1H-benzimidazole-4-carboxamide] is 8.2-fold lower in Ki: 41 nM for the first, 5 nM for the second.

Going from `NC(=O)c1cccc2[nH]c(-c3ccc([C@H]4CCCN4C4CCCC4)s3)nc12` [Example 22, 2-(5-((2R)-1-cyclopentylpyrrolidin-2-yl)thien-2-yl)-1H-benzimidazole-4-carboxamide] to `NC(=O)c1cccc2[nH]c(-c3ccc([C@H]4CCCN4C4CCOCC4)s3)nc12` [Example 24, 2-(5-((2R)-1-tetrahydro-2H-pyran-4-ylpyrrolidin-2-yl)thien-2-yl)-1H-benzimidazole-4-carboxamide], the Ki rises from 3 nM to 12 nM (4-fold).

Going from `CN1CCC[C@@H]1c1ccc(-c2nc3c(C(N)=O)cccc3[nH]2)s1` [Example 17, 2-(5-((2R)-1-methylpyrrolidin-2-yl)thien-2-yl)-1H-benzimidazole-4-carboxamide] to `CCCN1CCC(c2nc(-c3nc4c(C(N)=O)cccc4[nH]3)cs2)CC1` [Example 8, 2-(2-(1-propylpiperidin-4-yl)-1,3-thiazol-4-yl)-1H-benzimidazole-4-carboxamide], the Ki rises from 10 nM to 50 nM (5-fold). The first binds more tightly here.

In the case of `NC(=O)c1cccc2[nH]c(-c3csc(-c4cccs4)n3)nc12` [Example 4, 2-(2-thien-2-yl-1,3-thiazol-4-yl)-1H-benzimidazole-4-carboxamide], the Ki is reported as 20.9 nM.
